Data published in US20040121965A1, “Method of treating resistant tumors” (Wyeth Holdings Corporation, priority 2002, published 2004).
Where two headings read alike, the source gives them in different places.

Columns and labels:
[1] = system: KB-8-5 (MDR1+); test: Cell survival assay (SRB), KB-8-5 (MDR1+); settings: for IC50: Homo sapiens
[2] = system: KB-3-1; test: Cell survival assay (SRB), KB-3-1; assay type: cell-based, human; settings: Homo sapiens
Method in brief: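 IC50 for 50% growth inhibition after 3-day compound exposure, tested in duplicate. SRB protein staining of TCA-fixed cells (10% TCA, 1 hr, 4 °C), solubilised in Tris base and read by absorbance, was used as the survival read-out, with KB-3-1 grown in 20% FCS.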

[3] = system: KB-V1 (MDR1++); test: Cell survival assay (SRB), KB-V1 (MDR1++); settings: for IC50: Homo sapiens
[4] = MDR1, read-out: In vitro IC50 (nM) KB85
[5] = KB 3-1, KB-3-1 cells (paclitaxel-sensitive parent), read-out: In vitro IC50 (nM) KB-3-1
[6] = read-out: In vitro IC50 (nM) KBV1

Structure (SMILES) | Ratio KB85/KB [1] | IC50 [1, 4] [nM] | IC50 [2, 5] [nM] | Ratio KBV1/KB [3] | IC50 [3, 6] [nM] | Ratio KB85/KB ([1]; ratio of IC50 in KB85 to IC50 in KB-3-1) | IC50 ([2]; KB-3-1 cells (paclitaxel-sensitive parent), read-out: In vitro IC50 (nM) KB-3-1) [nM] | Ratio KBV1/KB ([3]; ratio of IC50 in KBV1 to IC50 in KB-3-1) | IC50 ([2]; KB 3-1, read-out: In vitro IC50 (nM) KB-3-1) [nM] | RR, relative resistance [1] | IC50 ([1]; MDR1, read-out: KB-8-5 (MDR1+) IC50, nM (N)) [nM] | IC50 ([2]; KB 3-1, KB-3-1 parental, Table 3, read-out: KB-3-1 IC50, nM (N)) [nM] | RR, relative resistance [3] | IC50 ([3]; read-out: KB-V1 (MDR1++) IC50, nM (N)) [nM]
CN[C@H](C(=O)N[C@H](C(=O)N(C)[C@H](/C=C(\C)C(=O)O)Cc1ccccc1)C(C)(C)C)C(C)(C)c1ccccc1 [Example 136, (E,4S)-4-[((2S)-3,3-dimethyl-2-{[(2S)-3-methyl-2-(methylamino)-3-phenylbutanoyl]amino}butanoyl)(methyl)amino]-2-methyl-5-phenyl-2-pentenoic Acid] | 2.8 | 1320 | 479 | 6.3 | ≥ 3000 | – | – | – | – | – | – | – | – | –
CN[C@H](C(=O)N[C@@H](Cc1ccccc1)C(=O)N(C)[C@H](/C=C(\C)C(=O)O)C(C)C)C(C)(C)c1ccccc1 [Example 137, (E,4S)-2,5-dimethyl4-[methyl((2S)-2-{[(2S)-3-methyl-2-(methylamino)-3-phenylbutanoyl]amino}-3-phenylpropanoyl)amino]-2-hexenoic Acid] | 1.7 | 1580 | 934 | 3.2 | ≥ 3000 | – | – | – | – | – | – | – | – | –
CC(C)C[C@H](N)C(=O)N[C@H](C(=O)N[C@H](CC(C)C(=O)O)C(C)C)C(C)(C)C (stereo partly drawn) [Example 138, (4R)4-[((2S)-2-{[(2S)-2-amino4-methylpentanoyl]amino}-3,3-dimethylbutanoyl)amino]-2,5-dimethylhexanoic Acid] | – | 1510 | – | – | ≥ 3000 | 2.2 | 692 | 4.3 | – | – | – | – | – | –
CN[C@H](C(=O)N[C@H](C(=O)N(C)[C@H](/C=C(\C)C(=O)O)C(C)C)C(C)(C)C)C(C)(C)C [Example 140, N,3-dimethyl-L-valyl-N^1-[(1S,2E)-3-carboxy-1-isopropyl-2-butenyl]-N^1,3-dimethyl-L-valinamide] | 1.6 | 181 | 114 | 26.4 | ≥ 3000 | – | – | – | – | – | – | – | – | –
CN[C@H](C(=O)N[C@H](C(=O)N(C)[C@H](/C=C(\C)C(=O)O)C(C)C)C(C)(C)C)C(C)(C)c1c[nH]c2ccccc12 [Example 141, N,β,β-trimethyl-L-tryptophyl-N^1-[(1S,2E)-3-carboxy-1-isopropyl-2-butenyl]-N^1,3-dimethyl-L-valinamide] | 2.4 | 1.65 | 0.695 | 139.4 | 96.9 | – | – | – | – | – | – | – | – | –
CN[C@H](C(=O)N[C@H](C(=O)N(C)[C@H](/C=C(\C)C(=O)N[C@@H](CCSC)C(=O)O)C(C)C)C(C)(C)C)C(C)(C)c1ccccc1 [Example 145, N,β,β-trimethyl-L-phenylalanyl-N 1-((1S,2E)4-{[(1S)-1-carboxy-3-(methylthio)propyl]amino}-1-isopropyl-3-methyl-4-oxobut-2-enyl)-N 1,3-dimethyl-L-valinamide] | 12.2 | 1600 | 131 | 22.9 | > 3000 | – | – | – | – | – | – | – | – | –
CN[C@H](C(=O)N[C@H](C(=O)N(C)[C@H](/C=C(\C)C(=O)O)C(C)C)C(C)(C)C)C(C)(C)c1ccc(/C=C/c2ccccc2)cc1 [Example 146, N,β,β-trimethyl-4-[(E)-2-phenylvinyl]-L-phenylalanyl-N^1-[(1S,2E)-3-carboxy-1-isopropylbut-2-enyl]-N^1,3-dimethyl-L-valinamide] | 2.4 | 3.1 | 1.3 | 53.8 | 70 | – | – | – | – | – | – | – | – | –
CN[C@@H](C(=O)N[C@H](C(=O)N(C)[C@H](/C=C(\C)C(=O)O)C(C)C)C(C)(C)C)C(C)(C)c1ccc(/C=C/c2ccccc2)cc1 [Example 147, N,β,β-trimethyl4-[(E)-2-phenylvinyl]-D-phenylalanyl-N^1-[(1S,2E)-3-carboxy-1-isopropylbut-2-enyl]-N^1,3-dimethyl-L-valinamide] | 1.7 | 20 | 11.6 | 53.4 | 620 | – | – | – | – | – | – | – | – | –
CN[C@H](C(=O)N[C@@H](C(=O)N(C)[C@H](/C=C(\C)C(=O)O)C(C)C)C(C)(C)F)C(C)(C)c1ccccc1 [Example 148, N,β,β-trimethyl-L-phenylalanyl-N^1-[(1S,2E)-3-carboxy-1-isopropylbut-2′enyl]-3-fluoro-N^1-methyl-D-valinamide] | 2.2 | 193 | 88 | 34.1 | > 3000 | – | – | – | – | – | – | – | – | –
CN[C@H](C(=O)N[C@H](C(=O)N(C)[C@H](/C=C(\C)C(=O)O)C(C)C)C(C)(C)F)C(C)(C)c1ccccc1 [Example 149, N,β,β-trimethyl-L-phenylalanyl-N^1-[(1S,2E)-3-carboxy-1-isopropylbut-2-enyl]-3-fluoro-N^1-methyl-L-valinamide] | 2.2 | 3.5 | 1.6 | – | 117 | – | – | – | – | – | – | – | – | –
CN[C@H](C(=O)N[C@H](C(=O)N(C)[C@H](/C=C(\C)C(=O)O)C(C)C)C(C)(C)C)C(C)(C)SCc1ccc(OC)cc1 [Example 150, 3-[(4-methoxybenzyl)thio]-N-methyl-L-valyl-N^1-[(1S,2E)-3-carboxy-1-isopropylbut-2-enyl]-N^1,3-dimethyl-L-valinamide] | 2.1 | 11.3 | 5.2 | 36.5 | 190 | – | – | – | – | – | – | – | – | –
C/C(=C\[C@H](C(C)C)N(C)C(=O)[C@@H](NC(=O)[C@@H](N1CCCC1)C(C)(C)c1ccccc1)C(C)(C)C)C(=O)O [Example 152, (2E,4S)-2,5-dimethyl-4-(methyl{3-methyl-N-[(2S)-3-methyl-3-phenyl-2-pyrrolidin-1-ylbutanoyl]-L-valyl}amino)hex-2-enoic Acid] | 2.1 | 158 | 75 | 40 | > 3000 | – | – | – | – | – | – | – | – | –
C/C(=C\[C@H](C(C)C)N(C)C(=O)[C@@H](NC(=O)[C@@H](NCCO)C(C)(C)c1ccccc1)C(C)(C)C)C(=O)O [Example 153, N-(2-hydroxyethyl)-β,β-dimethyl-L-phenylalanyl-N^1-[(1S,2E)-3-carboxy-1-isopropylbut-2-enyl]-N^1,3-dimethyl-L-valinamide] | 3.4 | 616 | 183 | 16.4 | > 3000 | – | – | – | – | – | – | – | – | –
CN[C@H](C(=O)N[C@H](C(=O)N(C)[C@H](/C=C(\C)C(=O)O)C(C)C)C(C)(C)C)[C@H](C)c1ccccc1 [Example 154, (βR)-N,β-dimethyl-L-phenylalanyl-N^1-[(1S,2E)-3-carboxy-1-isopropylbut-2-enyl]-N^1,3-dimethyl-L-valinamide] | 1.3 | 584 | 438 | 6.8 | > 3000 | – | – | – | – | – | – | – | – | –
CN[C@H](C(=O)N[C@H](C(=O)N(C)[C@H](/C=C(\C)C(=O)O)C(C)C)C(C)(C)C)C(C)(C)c1cccc(C(C)=O)c1 [Example 155, 3-acetyl-N,β,β-trimethyl-L-phenylalanyl-N^1-[(1S,2E)-3-carboxy-1-isopropylbut-2-enyl]-N^1,3-dimethyl-L-valinamide] | 3.2 | 5.8 | 1.8 | 206 | 370 | – | – | – | – | – | – | – | – | –
CN[C@H](C(=O)N[C@H](C(=O)N(C)[C@H](/C=C(\C)C(=O)O)C(C)C)C(C)(C)O)C(C)(C)c1ccccc1 [Example 156, N,β,β-trimethyl-L-phenylalanyl-N^1-[(1S,2E)-3-carboxy-1-isopropylbut-2-enyl]-3-hydroxy-N^1-methyl-L-valinamide] | 1.6 | 95 | 58 | 51.7 | > 3000 | – | – | – | – | – | – | – | – | –
CN[C@H](C(=O)N[C@H](C(=O)N(C)[C@@H](/C=C(\C)C(=O)O)C(C)C)C(C)(C)C)C(C)(C)c1ccccc1 [Example 157, N,β,β-trimethyl-L-phenylalanyl-N^1-[(1R,2E)-3-carboxy-1-isopropylbut-2-enyl]-N^1,3-dimethyl-L-valinamide] | 2.7 | 1650 | – | 5.0 | > 3000 | – | – | – | 605 | – | – | – | – | –
CN[C@H](C(=O)N[C@H](C(=O)N(C)[C@H](/C=C(\C)C(=O)O)C(C)C)C(C)(C)C)C(C)(C)c1cn(C)c2ccccc12 [Hemiasterlin, hemiasterlin, reference compound] | – | – | – | – | – | – | – | – | – | 3.2 | 1 | 0.319 ± 0.095 | 239 | 76.1
CCOC(=O)/C(C)=C/[C@H](C(C)C)N(C)C(=O)[C@@H](NC(=O)[C@@H](NC)C(C)(C)C1CCCCC1)C(C)(C)C [Reference Example 100, 3-Cyclohexyl-N-methyl-L-valyl-N^1-[(1S,2E)-4-ethoxy-1-isopropyl-3-methyl-4-oxo-2-butenyl]-N^1,3-dimethyl-L-valinamide] | 2.6 | 602 | 229 | 8.5 | 1950 | – | – | – | – | – | – | – | – | –
